Results on eight molecules are retold here after ChEMBL document CHEMBL1201862, “PubChem BioAssay data set” (2004).

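All cell lines were grown in 96-well plates and treated with compound for 48 hours. GI50 = concentration required for 50% inhibition of growth.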 The source made the active and inactive calls. Rule as the data show it: active = GI50 up to about 1.1 µM and inactive = higher. Bounds are passed on as bounds.

Some test systems named below: PC-3; K562; NCI/ADR-RES; OVCAR-5; NCI-H460; IGROV-1; NCI-H23; CCRF-CEM; SN12C; Malme-3M; BT-549; OVCAR-3; SR; HOP-62; 786-0; RXF 393; HL-60; Hs-578T; SK-MEL-28; HCT-116.
Assay in all cases: inhibition of tumour cell growth, NCI panel, 48 h

With `CCOC(=O)Nc1nc2cc(Cn3cccc3)ccc2[nH]1`, the GI50 was 0.399 µM (active) with PC-3; 0.359 µM (active) in the assay with K562; 0.387 µM (active) with NCI/ADR-RES; 16 µM (inactive) with OVCAR-5; 0.802 µM (active) in the assay on NCI-H460; 1.85 µM (inactive) with IGROV-1. Besides, the GI50 in the assay with NCI-H23 is 4.82 µM (inactive); with CCRF-CEM, 0.581 µM (active); in the assay on SN12C, 2.33 µM (inactive); in the assay with Malme-3M, 1.09 µM (active); in the assay with BT-549 it was > 20.2 µM (inactive); with OVCAR-3, 1.13 µM (inactive). The GI50 in the assay on SR was 0.735 µM (active); in the assay with HOP-62, 1.36 µM (inactive); in the assay on 786-0, 1.09 µM (active); in the assay on RXF 393, 4.03 µM (inactive); in the assay with HL-60, 0.27 µM (active); with Hs-578T, 0.857 µM (active). The GI50 with SK-MEL-28 was 4.89 µM (inactive); in the assay on HCT-116 it was 1.02 µM (active).
Take `COc1cc(C2c3cc4c(cc3CC3COC(=O)N32)OCO4)cc(OC)c1OC` (centres undefined): the GI50 with PC-3 was 1.99 µM (inactive); in the assay with K562, 1.57 µM (inactive); in the assay with NCI/ADR-RES, 1.58 µM (inactive); with OVCAR-5, > 53.1 µM (inactive); in the assay on NCI-H460, 4 µM (inactive); in the assay on IGROV-1, 7.13 µM (inactive). The GI50 in the assay on CCRF-CEM is 2.56 µM (inactive); with SN12C, 4.73 µM (inactive); in the assay on Malme-3M it was 2.83 µM (inactive); in the assay on BT-549, 6.27 µM (inactive); in the assay on OVCAR-3, 1.93 µM (inactive); in the assay with SR, 1.57 µM (inactive). In addition, the GI50 in the assay with HOP-62 is 4.12 µM (inactive); in the assay with 786-0 it was 3.09 µM (inactive); in the assay with RXF 393, 1.57 µM (inactive); in the assay with HL-60, 2.08 µM (inactive); in the assay on Hs-578T, 2.52 µM (inactive); with SK-MEL-28, 5.05 µM (inactive). In the assay on HCT-116, the GI50 is 2.72 µM (inactive).
For the molecule `NC(=O)NN=C1Cc2ccccc2C1`, the GI50 in the assay with PC-3, in the assay on K562, in the assay with NCI/ADR-RES, in the assay on OVCAR-5, with NCI-H460 and in the assay with IGROV-1 was > 100 µM (inactive) each time. Moreover, the GI50 in the assay on NCI-H23, in the assay with CCRF-CEM, in the assay on SN12C, in the assay with Malme-3M, with BT-549 and in the assay on OVCAR-3 was > 100 µM (inactive) throughout. For the same molecule, the GI50 in the assay on SR, with HOP-62, in the assay on 786-0, with RXF 393, in the assay on HL-60 and in the assay with Hs-578T was > 100 µM (inactive) each time. The GI50 in the assay on SK-MEL-28 and in the assay with HCT-116 was > 100 µM (inactive) each time.
In the case of `O=C(O)CSc1n[nH]c(=O)[nH]c1=O`, the GI50 with PC-3, in the assay on K562, in the assay on NCI/ADR-RES, in the assay with OVCAR-5, with NCI-H460 and in the assay with IGROV-1 was > 100 µM (inactive) each time. In addition, the GI50 in the assay with NCI-H23 was > 100 µM (inactive); in the assay with CCRF-CEM, > 100 µM (inactive); with SN12C, > 100 µM (inactive); in the assay on Malme-3M it was > 100 µM (inactive); with BT-549 it was > 100 µM (inactive); in the assay on OVCAR-3, 74.8 µM (inactive). For the same molecule, the GI50 with SR, in the assay with HOP-62, in the assay on 786-0, with RXF 393, in the assay on HL-60 and with Hs-578T was > 100 µM (inactive) throughout. For the same molecule, the GI50 in the assay on SK-MEL-28 and with HCT-116 was > 100 µM (inactive) throughout.
For the molecule `CN1C(=O)C2C(=O)N(Cc3ccccc3)CC(=O)N2c2cccnc21` (centres undefined), the GI50 in the assay with PC-3, in the assay on K562, in the assay on NCI/ADR-RES, in the assay with OVCAR-5, in the assay on NCI-H460 and in the assay with IGROV-1 was > 100 µM (inactive) in each case. Moreover, the GI50 was > 100 µM (inactive) in the assay with NCI-H23; > 100 µM (inactive) with CCRF-CEM; 70.5 µM (inactive) with Malme-3M; > 100 µM (inactive) in the assay with BT-549; > 100 µM (inactive) with OVCAR-3; > 100 µM (inactive) with SR. Also, the GI50 in the assay on HOP-62, with 786-0, in the assay with RXF 393, in the assay with HL-60, in the assay with Hs-578T and in the assay on HCT-116 was > 100 µM (inactive) throughout.
As to `CCOC(=O)CN1C(=O)c2ccc(NC(=O)C(=O)O)cc2S1(=O)=O`, the GI50 in the assay on PC-3, in the assay on K562, with NCI/ADR-RES, with OVCAR-5, in the assay on NCI-H460 and in the assay with IGROV-1 was > 100 µM (inactive) in each case. Besides, the GI50 with NCI-H23, in the assay on CCRF-CEM, with SN12C, in the assay with Malme-3M, in the assay on BT-549 and with SR was > 100 µM (inactive) each time. Also, the GI50 in the assay on HOP-62, in the assay with 786-0, in the assay on RXF 393, with HL-60, in the assay on Hs-578T and in the assay on SK-MEL-28 was > 100 µM (inactive) in each case. The GI50 in the assay on HCT-116 is > 100 µM (inactive).
Take `CCOC(=O)c1nc2ccccc2nc1Oc1cc(OC)cc(OC)c1`: the GI50 was > 100 µM (inactive) in the assay with PC-3; > 100 µM (inactive) in the assay with K562; > 100 µM (inactive) in the assay with NCI/ADR-RES; > 100 µM (inactive) in the assay with OVCAR-5; 39.5 µM (inactive) in the assay with NCI-H460; > 100 µM (inactive) in the assay with IGROV-1. In addition, the GI50 in the assay on CCRF-CEM, in the assay on SN12C, in the assay on Malme-3M, in the assay with BT-549, in the assay with OVCAR-3 and in the assay on SR was > 100 µM (inactive) each time. The GI50 with HOP-62 was 69.7 µM (inactive); in the assay with 786-0, 35.5 µM (inactive); in the assay on RXF 393 it was 53.5 µM (inactive); with HL-60, 8.41 µM (inactive); with Hs-578T, 27.9 µM (inactive); in the assay with SK-MEL-28, > 100 µM (inactive). The GI50 in the assay on HCT-116 is > 100 µM (inactive).
Turning to `O=C1CCc2cc3c(cc21)C(C(=O)O)CC3` (centres undefined), the GI50 in the assay on PC-3, with K562, in the assay on NCI/ADR-RES, with OVCAR-5, in the assay on NCI-H460 and in the assay with IGROV-1 was > 100 µM (inactive) each time. For the same molecule, the GI50 with NCI-H23, with CCRF-CEM, with SN12C, with Malme-3M, in the assay with BT-549 and in the assay on SR was > 100 µM (inactive) in each case. For the same molecule, the GI50 in the assay on HOP-62 was > 100 µM (inactive); with 786-0 it was > 100 µM (inactive); in the assay on RXF 393 it was 30.8 µM (inactive); in the assay on HL-60 it was > 100 µM (inactive); in the assay with Hs-578T it was > 100 µM (inactive); in the assay on SK-MEL-28, > 100 µM (inactive). Also, the GI50 in the assay on HCT-116 was > 100 µM (inactive).
